Test results: ChEMBL document CHEMBL1201862, “PubChem BioAssay data set” (2004)
Activity calls are given as the source filed them.

How the values were obtained:
[1] = biological target: C-C chemokine receptor type 6 (Homo sapiens, UniProt P51684); assay: CCR6 receptor antagonists, dose response, cell-based, luminescent beta-arrestin readout (AID 504728); type: functional
Beta-galactosidase = Beta-galactosidase (Escherichia coli, UniProt Q8VNN2); assay: beta-galactosidase enzyme inhibitors and activators, dose response, artefact control for CCR6 antagonist project, biochemical, E. coli enzyme, set 3 (AID 504712); type: functional
[2] = inhibition of K1F phage lysis, E. coli UTI89, bacterial capsule biogenesis inhibitors, alamar blue (AID 488966); type: functional
[3] = biological target: T1, Replicative DNA helicase DnaB (Mycobacterium tuberculosis, UniProt P9WMR3); assay: DnaB intein splicing inhibitors, dose response, biochemical, cell-free fluorescence (AID 449749); type: functional
T1 sequence (P9WMR3 whole entry): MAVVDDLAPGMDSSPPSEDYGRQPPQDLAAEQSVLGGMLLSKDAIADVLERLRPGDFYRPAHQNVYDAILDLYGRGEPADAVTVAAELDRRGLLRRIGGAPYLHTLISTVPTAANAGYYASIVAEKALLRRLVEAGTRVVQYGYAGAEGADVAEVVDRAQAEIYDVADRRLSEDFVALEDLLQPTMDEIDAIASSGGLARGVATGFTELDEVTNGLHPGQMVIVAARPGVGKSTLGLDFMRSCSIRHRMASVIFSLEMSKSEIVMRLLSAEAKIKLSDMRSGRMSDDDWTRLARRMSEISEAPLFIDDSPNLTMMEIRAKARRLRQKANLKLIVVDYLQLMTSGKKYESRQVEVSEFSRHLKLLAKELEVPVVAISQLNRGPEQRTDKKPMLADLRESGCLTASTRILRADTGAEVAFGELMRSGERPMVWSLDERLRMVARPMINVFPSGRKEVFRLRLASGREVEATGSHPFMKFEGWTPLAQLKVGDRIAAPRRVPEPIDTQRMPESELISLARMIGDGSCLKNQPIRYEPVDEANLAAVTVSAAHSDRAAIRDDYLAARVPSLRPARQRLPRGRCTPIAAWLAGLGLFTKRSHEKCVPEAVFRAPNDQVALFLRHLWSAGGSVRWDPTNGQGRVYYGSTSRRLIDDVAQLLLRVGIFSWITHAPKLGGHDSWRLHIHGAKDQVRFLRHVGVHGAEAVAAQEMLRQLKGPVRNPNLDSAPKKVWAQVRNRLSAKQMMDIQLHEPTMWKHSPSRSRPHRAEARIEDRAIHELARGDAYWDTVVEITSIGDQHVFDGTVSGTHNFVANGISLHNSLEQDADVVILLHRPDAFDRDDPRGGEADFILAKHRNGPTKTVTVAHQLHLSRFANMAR

Protein RecA = biological target: T2, Protein RecA (Mycobacterium tuberculosis, UniProt P9WHJ3); assay: Fluorescence Cell-Free Homogeneous Dose Retest to Identify Inhibitors of RecA-Intein Splicing Activity. [Related pubchem assays (depositor defined):AID2097, AID2223, AID489010, AID492950]; type: functional
T2 sequence (P9WHJ3 whole entry): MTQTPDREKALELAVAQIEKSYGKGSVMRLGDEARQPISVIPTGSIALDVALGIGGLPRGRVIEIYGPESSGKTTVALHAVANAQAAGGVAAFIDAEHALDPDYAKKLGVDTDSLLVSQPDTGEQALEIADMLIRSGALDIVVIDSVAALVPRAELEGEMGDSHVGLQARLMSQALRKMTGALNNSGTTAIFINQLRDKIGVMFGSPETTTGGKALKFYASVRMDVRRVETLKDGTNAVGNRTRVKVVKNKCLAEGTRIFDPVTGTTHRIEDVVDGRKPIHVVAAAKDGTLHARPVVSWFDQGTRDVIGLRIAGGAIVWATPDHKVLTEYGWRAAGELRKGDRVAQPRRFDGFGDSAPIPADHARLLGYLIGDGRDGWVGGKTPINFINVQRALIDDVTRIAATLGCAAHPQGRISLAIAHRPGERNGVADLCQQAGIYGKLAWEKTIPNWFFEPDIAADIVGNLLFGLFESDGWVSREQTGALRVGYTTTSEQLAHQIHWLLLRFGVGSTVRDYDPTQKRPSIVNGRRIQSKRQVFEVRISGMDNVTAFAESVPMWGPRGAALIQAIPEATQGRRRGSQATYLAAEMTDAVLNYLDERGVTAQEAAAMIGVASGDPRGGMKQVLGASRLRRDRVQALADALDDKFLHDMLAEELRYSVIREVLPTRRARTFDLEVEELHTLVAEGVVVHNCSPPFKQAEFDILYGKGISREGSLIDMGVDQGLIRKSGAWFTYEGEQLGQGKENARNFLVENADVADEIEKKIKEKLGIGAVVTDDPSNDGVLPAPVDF

Genome polyprotein = Genome polyprotein (dengue virus type 2, UniProt P29990); assay: Dengue-2 NS5 methyltransferase inhibitors, primary screen, biochemical, confirmation dose response (AID 588689); type: functional
Genome polyprotein, sequence (P29990 2492-3391 limits assumed): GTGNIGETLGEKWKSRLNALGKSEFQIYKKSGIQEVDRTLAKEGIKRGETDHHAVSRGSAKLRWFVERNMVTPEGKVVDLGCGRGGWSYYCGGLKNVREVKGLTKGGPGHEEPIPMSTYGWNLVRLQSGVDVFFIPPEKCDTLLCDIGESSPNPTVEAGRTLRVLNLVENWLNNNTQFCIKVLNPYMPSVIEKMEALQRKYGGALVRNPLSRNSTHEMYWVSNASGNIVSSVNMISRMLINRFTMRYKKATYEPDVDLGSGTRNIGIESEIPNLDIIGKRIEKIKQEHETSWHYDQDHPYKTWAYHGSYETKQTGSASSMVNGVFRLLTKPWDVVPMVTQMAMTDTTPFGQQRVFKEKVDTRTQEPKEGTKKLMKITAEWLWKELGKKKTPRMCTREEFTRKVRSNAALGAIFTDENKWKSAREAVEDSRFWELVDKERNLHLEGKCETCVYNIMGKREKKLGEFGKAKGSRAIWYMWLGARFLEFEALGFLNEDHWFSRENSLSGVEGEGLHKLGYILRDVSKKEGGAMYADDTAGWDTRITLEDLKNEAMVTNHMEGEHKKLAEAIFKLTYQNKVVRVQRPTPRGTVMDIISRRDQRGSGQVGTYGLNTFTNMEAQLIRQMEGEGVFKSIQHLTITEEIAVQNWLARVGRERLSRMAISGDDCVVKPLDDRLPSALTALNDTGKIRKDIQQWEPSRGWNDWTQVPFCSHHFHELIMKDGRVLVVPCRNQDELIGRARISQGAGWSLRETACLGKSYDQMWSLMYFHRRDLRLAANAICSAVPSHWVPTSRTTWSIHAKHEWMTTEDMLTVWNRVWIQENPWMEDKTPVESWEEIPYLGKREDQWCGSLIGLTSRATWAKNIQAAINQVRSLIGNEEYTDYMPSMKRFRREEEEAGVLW

[4] = biological target: T3, Voltage-gated N-type calcium channel alpha-1B subunit/Amyloid beta A4 precursor protein-binding family A member 1 (Homo sapiens, UniProt Q00975+Q02410); assay: disruptors of Mint-PDZ/N-type channel peptide interaction – biochemical, HTRF, set 2, SAR follow-up (AID 434980); type: functional
T3 sequence (Q00975 whole entry): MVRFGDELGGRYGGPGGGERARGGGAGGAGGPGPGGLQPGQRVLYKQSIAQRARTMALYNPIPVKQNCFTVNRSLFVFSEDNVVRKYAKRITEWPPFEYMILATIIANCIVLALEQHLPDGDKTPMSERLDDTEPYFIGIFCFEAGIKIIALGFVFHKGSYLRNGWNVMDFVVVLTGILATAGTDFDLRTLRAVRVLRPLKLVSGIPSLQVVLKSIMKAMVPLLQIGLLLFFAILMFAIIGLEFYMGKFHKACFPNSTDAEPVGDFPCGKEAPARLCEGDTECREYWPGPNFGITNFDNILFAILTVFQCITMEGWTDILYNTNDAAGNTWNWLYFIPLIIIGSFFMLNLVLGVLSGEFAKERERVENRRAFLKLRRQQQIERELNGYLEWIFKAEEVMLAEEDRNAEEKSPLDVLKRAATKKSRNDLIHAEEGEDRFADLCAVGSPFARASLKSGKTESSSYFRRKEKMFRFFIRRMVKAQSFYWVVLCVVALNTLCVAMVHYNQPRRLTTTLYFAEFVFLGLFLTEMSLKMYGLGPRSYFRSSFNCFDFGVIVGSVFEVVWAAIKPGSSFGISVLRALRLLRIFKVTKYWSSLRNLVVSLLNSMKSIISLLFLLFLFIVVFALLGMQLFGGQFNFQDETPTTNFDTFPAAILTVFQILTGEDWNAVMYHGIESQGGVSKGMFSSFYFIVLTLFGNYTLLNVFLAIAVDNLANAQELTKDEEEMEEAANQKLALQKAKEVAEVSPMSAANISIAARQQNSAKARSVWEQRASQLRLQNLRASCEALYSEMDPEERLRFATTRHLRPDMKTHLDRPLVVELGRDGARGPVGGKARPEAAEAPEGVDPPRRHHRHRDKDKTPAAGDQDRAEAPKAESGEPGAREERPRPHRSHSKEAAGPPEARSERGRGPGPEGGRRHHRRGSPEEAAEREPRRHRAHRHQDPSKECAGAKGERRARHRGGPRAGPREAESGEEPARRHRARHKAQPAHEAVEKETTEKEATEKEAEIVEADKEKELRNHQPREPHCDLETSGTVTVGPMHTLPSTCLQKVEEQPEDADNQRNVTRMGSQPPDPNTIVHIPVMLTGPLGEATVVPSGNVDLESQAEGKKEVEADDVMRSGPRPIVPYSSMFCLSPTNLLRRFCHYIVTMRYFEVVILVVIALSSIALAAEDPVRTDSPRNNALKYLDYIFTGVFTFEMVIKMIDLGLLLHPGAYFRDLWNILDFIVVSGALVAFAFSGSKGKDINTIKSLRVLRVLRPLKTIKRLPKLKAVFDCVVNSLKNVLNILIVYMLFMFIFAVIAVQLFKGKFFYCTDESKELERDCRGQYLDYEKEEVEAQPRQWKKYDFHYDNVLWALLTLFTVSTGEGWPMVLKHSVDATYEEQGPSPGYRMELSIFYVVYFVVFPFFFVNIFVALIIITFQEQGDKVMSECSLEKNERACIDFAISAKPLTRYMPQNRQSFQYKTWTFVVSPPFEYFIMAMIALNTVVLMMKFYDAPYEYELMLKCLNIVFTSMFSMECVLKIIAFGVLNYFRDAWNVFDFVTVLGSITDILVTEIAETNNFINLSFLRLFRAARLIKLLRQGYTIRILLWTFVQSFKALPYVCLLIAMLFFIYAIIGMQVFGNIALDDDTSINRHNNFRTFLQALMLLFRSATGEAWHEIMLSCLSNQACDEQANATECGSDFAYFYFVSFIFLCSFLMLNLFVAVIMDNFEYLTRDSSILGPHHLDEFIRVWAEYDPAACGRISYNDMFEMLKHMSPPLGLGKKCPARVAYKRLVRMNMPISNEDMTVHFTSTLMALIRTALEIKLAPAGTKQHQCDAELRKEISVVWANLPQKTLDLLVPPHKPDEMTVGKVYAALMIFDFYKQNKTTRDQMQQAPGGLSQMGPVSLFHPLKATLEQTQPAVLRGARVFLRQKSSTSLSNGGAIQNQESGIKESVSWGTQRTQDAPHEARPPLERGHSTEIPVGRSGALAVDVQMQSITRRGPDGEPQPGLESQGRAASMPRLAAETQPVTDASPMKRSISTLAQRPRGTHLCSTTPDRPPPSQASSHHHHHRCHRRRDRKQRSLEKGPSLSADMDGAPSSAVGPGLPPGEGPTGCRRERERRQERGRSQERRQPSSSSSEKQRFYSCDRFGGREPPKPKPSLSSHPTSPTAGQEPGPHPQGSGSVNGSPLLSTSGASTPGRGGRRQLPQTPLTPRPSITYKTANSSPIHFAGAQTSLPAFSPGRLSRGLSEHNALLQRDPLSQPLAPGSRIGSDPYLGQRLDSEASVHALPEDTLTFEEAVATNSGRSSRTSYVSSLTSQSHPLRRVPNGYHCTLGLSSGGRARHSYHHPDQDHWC
T3 sequence (Q02410 whole entry): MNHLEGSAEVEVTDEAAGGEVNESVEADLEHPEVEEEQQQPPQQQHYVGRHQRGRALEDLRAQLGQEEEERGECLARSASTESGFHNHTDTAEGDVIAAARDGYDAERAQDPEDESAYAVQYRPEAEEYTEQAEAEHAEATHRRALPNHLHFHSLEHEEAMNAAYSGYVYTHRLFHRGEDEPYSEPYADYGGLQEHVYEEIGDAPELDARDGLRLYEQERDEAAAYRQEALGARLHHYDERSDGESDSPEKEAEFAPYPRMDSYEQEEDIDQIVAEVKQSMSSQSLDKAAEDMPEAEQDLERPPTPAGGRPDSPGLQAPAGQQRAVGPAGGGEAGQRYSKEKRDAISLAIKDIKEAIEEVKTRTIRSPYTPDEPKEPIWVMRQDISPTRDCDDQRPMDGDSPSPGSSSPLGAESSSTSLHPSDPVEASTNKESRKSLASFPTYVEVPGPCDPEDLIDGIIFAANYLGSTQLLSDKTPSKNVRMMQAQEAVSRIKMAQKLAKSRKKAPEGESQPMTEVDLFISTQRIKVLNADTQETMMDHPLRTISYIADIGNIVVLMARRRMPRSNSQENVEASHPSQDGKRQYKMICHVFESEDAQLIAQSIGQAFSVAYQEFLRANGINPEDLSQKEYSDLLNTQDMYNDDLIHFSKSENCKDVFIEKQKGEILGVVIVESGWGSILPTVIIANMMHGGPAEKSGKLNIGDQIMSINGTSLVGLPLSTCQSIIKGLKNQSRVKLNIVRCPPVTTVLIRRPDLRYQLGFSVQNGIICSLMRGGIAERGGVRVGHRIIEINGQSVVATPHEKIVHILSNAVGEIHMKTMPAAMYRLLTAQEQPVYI

[5] = biological target: T3, Voltage-gated N-type calcium channel alpha-1B subunit/Amyloid beta A4 precursor protein-binding family A member 1; assay: disruptors of Mint-PDZ/N-type channel peptide interaction – biochemical, HTRF, SAR follow-up (AID 2489); type: functional
Protein Rev = Protein Rev (Human immunodeficiency virus type 1 group M subtype B (isolate HXB2)(HIV-1), UniProt P04618); assay: inhibitors of Rev binding to RRE RNA, dose response, biochemical, fluorescence polarization, HIV-1 (AID 434976); design: species or system Human immunodeficiency virus 1
[6] = biological target: Female germline-specific tumor suppressor gld-1 (Caenorhabditis elegans, UniProt Q17339); assay: inhibitors of GLD-1 binding to TGE RNA, dose response, biochemical, fluorescence polarization, C. elegans (AID 2802);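 also: fluorescence polarization of labeled TGE RNA bound by purified gld-1 protein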
Cytochrome P450 2C19 = Cytochrome P450 2C19 (Homo sapiens, UniProt P33261); assay: Cytochrome panel assay with activity outcomes. Panel member name: p450-cyp2c19 Compounds with AC50 equal or less than 10 uM are considered active; type: functional
[7] = biological target: T4, Polyadenylate-binding protein 1 (Homo sapiens, UniProt P11940); assay: PABP1 MLLE–PAM2 interaction inhibitors, dose response, miRNA deadenylation inhibitor project, biochemical, fluorescence polarization, Cy5-PAM2 peptide, secondary (AID 602260); type: functional; details: read-out: IC50_Mean
T4 sequence (P11940 whole entry): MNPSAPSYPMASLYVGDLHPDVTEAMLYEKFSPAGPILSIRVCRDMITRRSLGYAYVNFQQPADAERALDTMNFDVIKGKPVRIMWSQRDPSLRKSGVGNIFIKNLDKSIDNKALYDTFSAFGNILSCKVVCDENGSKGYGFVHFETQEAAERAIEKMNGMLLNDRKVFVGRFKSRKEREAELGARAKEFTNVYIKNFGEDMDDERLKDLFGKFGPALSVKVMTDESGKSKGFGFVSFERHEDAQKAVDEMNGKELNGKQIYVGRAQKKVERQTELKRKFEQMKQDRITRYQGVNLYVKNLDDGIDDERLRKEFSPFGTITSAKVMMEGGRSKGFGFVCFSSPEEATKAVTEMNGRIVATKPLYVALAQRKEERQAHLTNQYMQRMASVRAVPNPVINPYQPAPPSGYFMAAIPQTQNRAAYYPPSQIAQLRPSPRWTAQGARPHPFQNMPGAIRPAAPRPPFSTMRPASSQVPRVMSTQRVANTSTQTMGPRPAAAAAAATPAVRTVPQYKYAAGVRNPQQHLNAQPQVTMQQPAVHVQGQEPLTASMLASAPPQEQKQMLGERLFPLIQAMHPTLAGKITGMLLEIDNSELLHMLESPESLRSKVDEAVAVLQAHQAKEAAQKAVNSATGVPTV

[8] = biological target: T4, Polyadenylate-binding protein 1; assay: PABP1 MLLE–PAM2 binding inhibitor potency, dose response, biochemical, fluorescence polarization, FITC-PAM2 peptide (AID 602259); type: functional; details: read-out: IC50_Mean

C-C chemokine receptor type 6, sequence (P51684 whole entry): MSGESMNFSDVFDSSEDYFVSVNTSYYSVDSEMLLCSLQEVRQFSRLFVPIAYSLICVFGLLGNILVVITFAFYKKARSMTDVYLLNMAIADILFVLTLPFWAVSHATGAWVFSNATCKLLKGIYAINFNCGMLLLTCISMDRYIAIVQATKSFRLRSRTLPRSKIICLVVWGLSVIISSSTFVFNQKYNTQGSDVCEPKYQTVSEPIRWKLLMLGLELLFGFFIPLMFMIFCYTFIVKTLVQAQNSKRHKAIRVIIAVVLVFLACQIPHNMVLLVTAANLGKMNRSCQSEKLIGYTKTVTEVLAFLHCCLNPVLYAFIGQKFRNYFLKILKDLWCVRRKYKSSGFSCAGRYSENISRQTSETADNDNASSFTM

Which IC50 [1] does the source give for `O=C(Nc1nnc(C2CC2)s1)c1cc([N+](=O)[O-])ccc1N1CCCCC1` here?
Its IC50 is > 66.6 µM (inactive).

And the IC50 (Beta-galactosidase)?
The IC50 was > 66.6 µM (inactive).

For `N=C1/C(=C\c2ccc(OC(=O)c3ccc(F)cc3)cc2)C(=O)N=C2SC(N3CCOCC3)=NN12`, which IC50 [2] is on record?
Its IC50 is > 75 µM (active).

And the AC50 [3]?
The AC50 was 22.4 µM (active).

And the EC50 (Protein RecA)?
The EC50 was 17.1 µM (active).

And the IC50 (Genome polyprotein)?
The IC50 was 19.2 µM (active).

Which IC50 [4] does the source give for `O=C(c1cc(-c2ccco2)nc2ccccc12)N1CCN(c2ccccc2)CC1` here?
The IC50 was > 56.8 µM (inactive).

What about the IC50 [5] of the same compound?
Its IC50 is > 56.8 µM (inactive).

With `O=c1nc2[nH]c3ccccc3nc-2c(=O)[nH]1` [ALLOXAZINE] as the compound, how does the IC50 (Protein Rev) read?
The IC50 was 12.4 µM (not active).

What about the IC50 [6] of the same compound?
Its IC50 is 1.47 µM (active).

And the AC50 (Cytochrome P450 2C19)?
The AC50 was “inconclusive”.

What about the IC50 [7] of the same compound?
The IC50 was > 66 µM (inactive).

What about the IC50 [8] of the same compound?
The IC50 was 35.8 µM (inactive).
